For orientation: T/C means the result in the treated group divided by that in the control group, in per cent.

Format in all cases: functional
Assay [1] has as its system Mus musculus. Description: In vivo antitumor activity against P-388 leukemia in CDF1 mice at 64 mg or 166 umol by ip administration expressed as average wt. change determined between day 0 and day 6 of experiment.
Assay [2] concerns Mus musculus. Description: effect of drug treatment in combination with gamma radiation on P-388 leukemia in mice at 250 mg/kg and 400R expressed as average weight change.
Assay [3] relates to Mus musculus. Description: effect of drug treatment in combination with gamma radiation on P-388 leukemia in mice at 250 mg/kg and 600R expressed as average weight change.
Assay [4] concerns Mus musculus. Description: effect of drug treatment in combination with gamma radiation on P-388 leukemia in mice at 250 mg/kg and 200R expressed as median survival time of drug treated mice/median survival time of control mice x100.
The test system of assay [5] is Mus musculus. As to the kind of experiment: effect of drug treatment in combination with gamma radiation on P-388 leukemia in mice at 250 mg/kg and 200R expressed as average weight change.
Assay [6] concerns Mus musculus. As to the kind of experiment: effect of drug treatment in combination with gamma radiation on P-388 leukemia in mice at 250 mg/kg and 400R expressed as median survival time of drug treated mice/median survival time of control mice x100.
Assay [7] has as its system Mus musculus. Description: In vivo antitumor activity against P-388 leukemia in CDF1 mice at 32 mg or 83 umol by ip administration expressed as average wt. change determined between day 0 and day 6 of experiment.
For assay [8], the system named is Mus musculus. As to the kind of experiment: In vivo antitumor activity against P-388 leukemia in CDF1 mice at 32 mg or 83 umol by ip administration expressed as median survival time of drug treated mice/median survival time of control mice x100.
The test system of assay [9] is Mus musculus. As to the kind of experiment: In vivo antitumor activity against P-388 leukemia in CDF1 mice at 8 mg or 21 umol by ip administration expressed as median survival time of drug treated mice/median survival time of control mice x100.
Assay [10] has as its system Mus musculus. As to the kind of experiment: In vivo antitumor activity against P-388 leukemia in CDF1 mice at 8 mg or 21 umol by ip administration expressed as average wt. change determined between day 0 and day 6 of experiment.
Assay [11] concerns Mus musculus. Description: In vivo antitumor activity against P-388 leukemia in CDF1 mice at 16 mg or 41 umol by ip administration expressed as median survival time of drug treated mice/median survival time of control mice x100.
Assay [12] deals with Mus musculus. Description: In vivo antitumor activity against P-388 leukemia in CDF1 mice at 64 mg or 166 umol by ip administration expressed as median survival time of drug treated mice/median survival time of control mice x100.
Assay [13] relates to Mus musculus. As to the kind of experiment: In vivo antitumor activity against P-388 leukemia in CDF1 mice at 256 mg or 663 umol by ip administration expressed as average wt. change determined between day 0 and day 6 of experiment.
Assay [14] concerns Mus musculus. As to the kind of experiment: In vivo antitumor activity against P-388 leukemia in CDF1 mice at 128 mg or 331 umol by ip administration expressed as average wt. change determined between day 0 and day 6 of experiment.
Assay [15] relates to Mus musculus. Description: In vivo antitumor activity against P-388 leukemia in CDF1 mice at 256 mg or 663 umol by ip administration expressed as median survival time of drug treated mice/median survival time of control mice x100.
The subject of assay [16] is Mus musculus. Description: In vivo antitumor activity against P-388 leukemia in CDF1 mice at 128 mg or 331 umol by ip administration expressed as median survival time of drug treated mice/median survival time of control mice x100.
In assay [17] the test system is Mus musculus. As to the kind of experiment: effect of drug treatment in combination with gamma radiation on P-388 leukemia in mice at 250 mg/kg and 600R expressed as median survival time of drug treated mice/median survival time of control mice x100.
Assay [18] relates to Mus musculus. Description: In vivo antitumor activity against P-388 leukemia in CDF1 mice at 16 mg or 41 umol by ip administration expressed as average wt. change determined between day 0 and day 6 of experiment.
Assay [19] concerns Mus musculus. Description: In vivo antitumor activity against P-388 leukemia in CDF1 mice at 8 mg or 23 umol by ip administration expressed as median survival time of drug treated mice/median survival time of control mice x100.
Assay [20] relates to Mus musculus. Description: In vivo antitumor activity against P-388 leukemia in CDF1 mice at 16 mg or 47 umol by ip administration expressed as median survival time of drug treated mice/median survival time of control mice x100.
For assay [21], the system named is Mus musculus. Description: In vivo antitumor activity against P-388 leukemia in CDF1 mice at 256 mg or 746 umol by ip administration expressed as average wt. change determined between day 0 and day 6 of experiment.
Assay [22] deals with Mus musculus. As to the kind of experiment: In vivo antitumor activity against P-388 leukemia in CDF1 mice at 8 mg or 23 umol by ip administration expressed as average wt. change determined between day 0 and day 6 of experiment.
Assay [23] deals with Mus musculus. Description: In vivo antitumor activity against P-388 leukemia in CDF1 mice at 256 mg or 746 umol by ip administration expressed as median survival time of drug treated mice/median survival time of control mice x100.
The test system of assay [24] is Mus musculus. As to the kind of experiment: In vivo antitumor activity against P-388 leukemia in CDF1 mice at 16 mg or 47 umol by ip administration expressed as average wt. change determined between day 0 and day 6 of experiment.
Assay [25] deals with Mus musculus. As to the kind of experiment: In vivo antitumor activity against P-388 leukemia in CDF1 mice at 64 mg or 186 umol by ip administration expressed as median survival time of drug treated mice/median survival time of control mice x100.
In assay [26] the test system is Mus musculus. Description: In vivo antitumor activity against P-388 leukemia in CDF1 mice at 128 mg or 373 umol by ip administration expressed as average wt. change determined between day 0 and day 6 of experiment.
The subject of assay [27] is Mus musculus. As to the kind of experiment: In vivo antitumor activity against P-388 leukemia in CDF1 mice at 32 mg or 93 umol by ip administration expressed as median survival time of drug treated mice/median survival time of control mice x100.
For assay [28], the system named is Mus musculus. Description: In vivo antitumor activity against P-388 leukemia in CDF1 mice at 32 mg or 93 umol by ip administration expressed as average wt. change determined between day 0 and day 6 of experiment.
The test system of assay [29] is Mus musculus. As to the kind of experiment: In vivo antitumor activity against P-388 leukemia in CDF1 mice at 64 mg or 186 umol by ip administration expressed as average wt. change determined between day 0 and day 6 of experiment.
Assay [30] has as its system Mus musculus. As to the kind of experiment: In vivo antitumor activity against P-388 leukemia in CDF1 mice at 128 mg or 373 umol by ip administration expressed as median survival time of drug treated mice/median survival time of control mice x100.

Consider `CC1(C)CN1P(=O)(NC(=O)OCCn1ccnc1[N+](=O)[O-])N1CC1(C)C` (stereo not given), for which the Average weight change in the assay on Mus musculus [1] was -0.5 g; in the assay on Mus musculus [2], 1.17 g; in the assay on Mus musculus [3] it was 0.67 g; in the assay on Mus musculus [5], 1.92 g; in the assay with Mus musculus [7], 0.8 g; with Mus musculus [10] it was 1.6 g. Also, the Average weight change in the assay on Mus musculus [13] is reported as -1 g; with Mus musculus [14], -1.1 g; in the assay with Mus musculus [18], 0.6 g. For the same compound, the T/C with Mus musculus [4] is listed as 190%; in the assay with Mus musculus [6], 200%; in the assay on Mus musculus [8], 125%; with Mus musculus [9] it was 113%; in the assay on Mus musculus [11] it was 125%; with Mus musculus [12] it was 144%. Besides, the T/C with Mus musculus [15] was 169%; in the assay with Mus musculus [16], 156%; in the assay on Mus musculus [17] it was 230%.

`CC1(C)CN1P(=O)(OCCn1ccnc1[N+](=O)[O-])N1CC1(C)C` (stereo not given): the T/C in the assay on Mus musculus [19] amounted to 106%; with Mus musculus [20], 122%; in the assay with Mus musculus [23], 228%; in the assay on Mus musculus [25], 150%; in the assay on Mus musculus [27] it was 111%; in the assay on Mus musculus [30] it was 189%. Also, the Average weight change is listed as -2.8 g in the assay with Mus musculus [21]; 0.2 g with Mus musculus [22]; 0.1 g in the assay with Mus musculus [24]; -1.3 g in the assay with Mus musculus [26]; -0.9 g in the assay on Mus musculus [28]; -1.1 g in the assay with Mus musculus [29].

For the origin of these results see ChEMBL document CHEMBL1125669, “Synthesis of potential dual-acting radiation sensitizer antineoplastic agents: 2,2-dimethylphosphoraziridines containing 2-nitroimidazoles or other electron-affinic moieties” (1991).
